Test results taken from patent US10350210B2, “EGFR and ALK dual inhibitor” (PRECEDO PHARMACEUTICALS CO., LTD, priority 2015, dated 2019).

What was measured:
NCI-H1975 = assay: Growth of cancer cells (Cell Titer-Glo viability), NCI-H1975; type: cell-based; details: Homo sapiens; NCI-H1975 (EGFR L858R/T790M double mutant), 72 hrs
Procedure, shortened: (§1)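 Cells are counted as viable by CellTiter-Glo chemiluminescence. Murine BaF3 lines depend on a stably transfected TEL-fused kinase after IL-3 withdrawal, and the NSCLC lines express mutant EGFR.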

PC-9 = assay: Growth of cancer cells (Cell Titer-Glo viability), PC-9; type: cell-based; details: Homo sapiens; PC-9 (EGFR delE746_A750 mutant), 72 hrs
Procedure, shortened: as §1

A431 = assay: Growth of cancer cells (Cell Titer-Glo viability), A431; type: cell-based; details: Homo sapiens, A-431; A431 (wild-type EGFR), 72 hrs; read-out: GI50
From the text: (§2) By testing the effect of the novel kinase inhibitors on the proliferation of cancer cells, the selectivity of the compounds of the present disclosure in inhibiting the proliferation of cancer cells was further assessed. In this example, human non-small cell lung cancer cell NCI-H1975 (expressing EGFR L858R/T790M double mutant gene), human skin squamous carcinoma cell A431 (expressing wild-type EGFR gene), non-small cell lung cancer NCI-H3255 (expressing EGFR L858R mutant gene), non-small cell lung cancer cell NCI-H3122 (expressing ALK gene), human non-small cell lung cancer cell A549 (expressing wild-type EGFR gene), human non-small cell lung cancer cell NCI-H2122 (expressing wild-type EGFR gene), human non-small cell lung cancer cell NCI-H460 (expressing wild-type EGFR gene), human non-small cell lung cancer cell PC-9 (expressing EGFR delE746_A750 mutant gene), Chinese hamster ovary cell CHO (Cricetulus griseus, hamster, Chinese, ovary), Chinese hamster lung cell CHL, human non-small cell lung cancer cell HCC827 (expressing mutant EGFR del19 gene), human lung adenocarcinoma cell HCC4006 (expressing mutant EGFR del19 gene), human non-small cell lung cancer cell NCI-H2228 (expressing wild-type ALK gene), and mouse primary B cell BaF3 were used, and the above cells were all purchased from ATCC (US). In addition, mouse BaF3-TEL-ALK (stably expressing ALK kinase), mouse BaF3-ALK-F1174L (stably expressing mutant ALK F1174L kinase), mouse BaF3-NPM-ALK (stably expressing ALK kinase), mouse BaF3-TEL-EGFR (stably expressing EGFR kinase), mouse BaF3-TEL-EGFR-T790M (stably expressing EGFR T790M mutant kinase), mouse BaF3-FL-EGFR-Del19 (stably expressing EGFR delE746_A750 mutant kinase), mouse BaF3-TEL-EGFR-L858R (stably expressing EGFR L858R mutant kinase), mouse BaF3-FL-EGFR-T790M-L858R (stably expressing EGFR T790M/L858R mutant kinase), mouse BaF3-TEL-INSR (stably expressing INSR protein), mouse BaF3-TEL-IGF1R (stably expressing IGF1R Protein), mouse BaF3-EML4-ALK (stably expressing EML4-ALK Protein), mouse BaF3-TEL-JAK3 (stably expressing JAK3 kinase protein), mouse BaF3-TEL-CSF1R (stably expressing CSF1R protein), and mouse BaF3-TEL-ALK-F1196M (stably expressing ALK F1196M mutant kinase) were also used in this example. The above cell lines were all established by our laboratory via the following process: kinase proteins or protein domain sequences of human ALK, ALK F1174L, EGFR, EGFR T790M, EGFR delE746_A750, EGFR L858, EGFR T790M/L858R, INSR, IGF1R, EML4-ALK, JAK3, CSF1R, ALK F1196M were amplified respectively by PCR, and were respectively inserted into MSCV-Puro vector (Clontech) with N-terminal TEL fragments and/or NPM fragments and/or TPR fragments; the resultants were stably transfected into mouse BaF3 cells by the means of retrovirus, and the IL-3 growth factors were removed, and eventually the ALK, ALK F1174L, EGFR, EGFR T790M, EGFR delE746_A750, EGFR L858, EGFR T790M/L858R, INSR, IGF1R, EML4-ALK, JAK3, CSF1R, ALK F1196M-transferred protein dependent cell lines were obtained.
(§3) The number of viable cells was determined quantitatively by a microplate reader using Cell Titer-Glo® (Promega, US) chemiluminescence cell viability assay kit.

CHO = assay: Cell growth (Cell Titer-Glo viability), CHO; type: cell-based, Chinese hamster; details: Cricetulus griseus; CHO Chinese hamster ovary cell, 72 hrs; read-out: GI50
From the text: as §2, §3

CHL = assay: Cell growth (Cell Titer-Glo viability), CHL; type: cell-based, Chinese hamster; details: Cricetulus griseus; CHL Chinese hamster lung cell, 72 hrs; read-out: GI50
From the text: as §2, §3

NCI-H2122 = assay: Growth of cancer cells (Cell Titer-Glo viability), NCI-H2122; type: cell-based; details: Homo sapiens; NCI-H2122 (wild-type EGFR), 72 hrs
From the text: as §2, §3

A549 = assay: Growth of cancer cells (Cell Titer-Glo viability), A549; type: cell-based; details: Homo sapiens; A549 (wild-type EGFR), 72 hrs
HCC827 = assay: Growth of cancer cells (Cell Titer-Glo viability), HCC827; type: cell-based; details: Homo sapiens; HCC827 (mutant EGFR del19), 72 hrs
Procedure, shortened: (§4)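 Proliferation assay: IL-3-independent BaF3 lines stably expressing TEL-fused human kinase (retroviral MSCV-Puro), plus EGFR-mutant NSCLC lines (HCC827 del19, NCI-H3255 L858R). Read-out: CellTiter-Glo luminescence of viable cells.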

HCC4006 = assay: Growth of cancer cells (Cell Titer-Glo viability), HCC4006; type: cell-based; details: Homo sapiens; HCC4006 (mutant EGFR del19), 72 hrs
From the text: as §2, §3

NCI-H3122 = assay: Growth of cancer cells (Cell Titer-Glo viability), NCI-H3122; type: cell-based; details: Homo sapiens; NCI-H3122 (expressing ALK gene), 72 hrs; read-out: GI50
NCI-H2228 = assay: Growth of cancer cells (Cell Titer-Glo viability), NCI-H2228; type: cell-based; details: Homo sapiens; NCI-H2228 (wild-type ALK), 72 hrs
From the text: as §2, §3

BaF3 = assay: Cell growth (Cell Titer-Glo viability), BaF3; type: cell-based; details: BaF3 mouse primary B cell, 72 hrs
BaF3-TEL-ALK = assay: Cell growth (Cell Titer-Glo viability), BaF3-TEL-ALK; type: cell-based; details: Mus musculus; BaF3-TEL-ALK (stably expressing ALK kinase), 72 hrs
Procedure, shortened: as §4

BaF3-ALK-F1174L = assay: Cell growth (Cell Titer-Glo viability), BaF3-ALK-F1174L; type: cell-based; details: Mus musculus; BaF3-ALK-F1174L (mutant ALK F1174L kinase), 72 hrs
From the text: as §2, §3

BaF3-TEL-EGFR-T790M = assay: Cell growth (Cell Titer-Glo viability), BaF3-TEL-EGFR-T790M; type: cell-based; details: Mus musculus; BaF3-TEL-EGFR-T790M (EGFR T790M mutant kinase), 72 hrs
From the text: as §2, §3

BaF3-FL-EGFR-Del19 = assay: Cell growth (Cell Titer-Glo viability), BaF3-FL-EGFR-Del19; type: cell-based; details: Mus musculus; BaF3-FL-EGFR-Del19 (EGFR delE746_A750 mutant kinase), 72 hrs
From the text: as §2, §3

NCI-H460 = assay: Growth of cancer cells (Cell Titer-Glo viability), NCI-H460; type: cell-based; details: Homo sapiens; NCI-H460 (wild-type EGFR), 72 hrs
From the text: as §2, §3

NCI-H3255 = assay: Growth of cancer cells (Cell Titer-Glo viability), NCI-H3255; type: cell-based; details: Homo sapiens; NCI-H3255 (EGFR L858R mutant), 72 hrs
From the text: as §2, §3

BaF3-NPM-ALK = assay: Cell growth (Cell Titer-Glo viability), BaF3-NPM-ALK; type: cell-based; details: Mus musculus; BaF3-NPM-ALK (stably expressing ALK kinase), 72 hrs
From the text: as §2, §3

BaF3-TEL-EGFR = assay: Cell growth (Cell Titer-Glo viability), BaF3-TEL-EGFR; type: cell-based; details: Mus musculus; BaF3-TEL-EGFR (stably expressing EGFR kinase), 72 hrs
From the text: as §2, §3

Structure (SMILES)	GI50 (NCI-H1975)	GI50 (PC-9)	GI50 (A431)	GI50 (CHO)	GI50 (CHL)	GI50 (NCI-H2122)	GI50 (A549)	GI50 (HCC827)	GI50 (HCC4006)	GI50 (NCI-H3122)	GI50 (NCI-H2228)	GI50 (BaF3)	GI50 (BaF3-TEL-ALK)	GI50 (BaF3-ALK-F1174L)	GI50 (BaF3-TEL-EGFR-T790M)	GI50 (BaF3-FL-EGFR-Del19)	GI50 (NCI-H460)	GI50 (NCI-H3255)	GI50 (BaF3-NPM-ALK)	GI50 (BaF3-TEL-EGFR)
C=CC(=O)Nc1cc(Nc2ncc(Cl)c(Nc3ccccc3S(=O)(=O)C(C)C)n2)c(OC)cc1N1CCN(C(=O)OC(C)(C)C)CC1 [Compound 3, tert-butyl 4-(2-acrylamido-4-(5-chloro-4-(2-(isopropylsulfonyl)phenylamino)pyrimidin-2-ylamino)-5-methoxyphenyl)piperazine-1-carbonate]	380 nM	250 nM	1200 nM	> 10000 nM	> 10000 nM	710 nM	> 10000 nM	370 nM	1100 nM	32 nM	560 nM	4700 nM	24 nM	1300 nM	290 nM	130 nM	–	–	–	–
C=CC(=O)Nc1cc(Nc2ncc(Cl)c(Nc3ccccc3S(=O)(=O)C(C)C)n2)c(OC)cc1N1CCN(S(C)(=O)=O)CC1 [Compound 5, N-(5-(5-chloro-4-(2-(isopropylsulfonyl)phenylamino)pyrimidin-2-ylamino)-4-methoxy-2-(4-(methylsulfonyl)piperazin-1-yl)phenyl)acrylamide]	40 nM	39 nM	1100 nM	5200 nM	2300 nM	170 nM	3300 nM	44 nM	160 nM	< 0.3 nM	240 nM	2800 nM	10 nM	2300 nM	53 nM	7 nM	–	–	–	–
C=CC(=O)Nc1cc(Nc2ncc(Cl)c(Nc3ccccc3S(=O)(=O)C(C)C)n2)c(OC)cc1N1CCCCC1 [Compound 6, N-(5-(5-chloro-4-(2-(isopropylsulfonyl)phenylamino)pyrimidin-2-ylamino)-4-methoxy-2-(piperidin-1-yl)phenyl) acrylamide]	240 nM	27 nM	540 nM	360 nM	> 10000 nM	880 nM	330 nM	51 nM	260 nM	29 nM	200 nM	340 nM	15 nM	310 nM	18 nM	6 nM	–	–	–	–
C=CC(=O)Nc1cc(Nc2ncc(Cl)c(Nc3ccccc3S(=O)(=O)C(C)C)n2)c(OC)cc1N1CCC(N2CCN(C)CC2)CC1 [Compound 8, N-(5-(5-chloro-4-(2-(isopropylsulfonyl)phenylamino)pyrimidin-2-ylamino)-4-methoxy-2-(4-(4-methylpiperazin-1-yl)piperidin-1-yl)phenyl)acrylamide]	45 nM	53 nM	370 nM	460 nM	800 nM	200 nM	–	2.7 nM	14 nM	< 0.3 nM	350 nM	460 nM	< 0.3 nM	29 nM	46 nM	2 nM	660 nM	110 nM	< 3 nM	430 nM
COc1cc(N2CCC(N3CCN(C)CC3)CC2)ccc1Nc1ncc(Cl)c(Nc2ccccc2S(=O)(=O)C(C)C)n1 [TAE-684, reference compound]	–	540 nM	1300 nM	–	–	310 nM	1500 nM	370 nM	440 nM	< 0.3 nM	580 nM	–	< 0.3 nM	140 nM	420 nM	–	470 nM	1000 nM	< 3 nM	560 nM
